# Measurements published in US20020156094A1, “Sulfonamide interleukin-1beta converting enzyme inhibitors” (Warner-Lambert Company, priority 1996, published 2002).
# “And” between values parts separate entries of the source, which are not always exact repeats. Equal entries are not always repeated.
# Legend:
# Assay type in all cases: biochemical
# [1] = target: T1, ICE (interleukin-1β converting enzyme, Caspase-1) (Homo sapiens, UniProt P29466); assay: ICE Ki fluorescence assay (Ac-Tyr-Val-Ala-Asp-AMC hydrolysis); details: ICE 0.24 nM, 15 μM Ac-Tyr-Val-Ala-Asp-AMC, reversible competitive model
# T1 sequence (P29466 120-297 limits assumed): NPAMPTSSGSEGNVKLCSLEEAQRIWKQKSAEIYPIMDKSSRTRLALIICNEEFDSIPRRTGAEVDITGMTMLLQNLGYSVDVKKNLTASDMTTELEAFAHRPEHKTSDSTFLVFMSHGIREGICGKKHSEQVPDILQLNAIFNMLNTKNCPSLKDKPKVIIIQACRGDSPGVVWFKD
# T1 sequence (P29466 317-404 limits assumed): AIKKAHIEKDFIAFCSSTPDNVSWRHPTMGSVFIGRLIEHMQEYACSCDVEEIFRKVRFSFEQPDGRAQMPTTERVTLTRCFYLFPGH
# Experimental: Substrate hydrolysis is monitored for 300 seconds by observing the fluorescence of released AMC using excitation at 380 nm and emission at 460 nm. Mean rates of substrate hydrolysis are evaluated by linear-regression analysis of the fluorescence vs time traces. To evaluate Ki, plots of percent inhibition vs inhibitor concentration are fit by non-linear regression to a reversible, competitive model: [formula]
# Where the competition factor (1+[S]/KM)=2.
# [2] = target: T1, ICE (interleukin-1β converting enzyme, Caspase-1); assay: ICE Colorimetric Dose-Response (IC50) Assay; details: ICE approx. 24 nM, 60 min preincubation, 50 μM Ac-Tyr-Val-Ala-Asp-pNA, 25° C.
# Experimental: ICE Colorimetric Dose-Response (IC50) Assay
# (§1) Diluted inhibitor stocks are prepared by two-fold serial dilution from a primary stock whose concentration is selected (based on screening results or on prior attempts at IC50 evaluation) to achieve approximately 95% inhibition in the most concentrated well. Aliquots of each dilution are transferred to a microtitre plate in triplicate.
# (§2) ICE enzyme is diluted to approximately 24 nM in HGE buffer (100 mM HEPES pH 7.5, 0.5 mM EDTA, 20% glycerol, 0.1% Bovine Serum Albumin (BSA)), and activated by adding dithiothreitol (DTT) to a final concentration of 5 mM. The activated enzyme is then aliquoted into wells containing inhibitor or vehicle, and the plate is preincubated for 60 minutes at ambient temperature. Substrate (Ac-Tyr-Val-Ala-Asp-pNA) is added to each well to a final concentration of 50 μM, and plates are placed in the microtitre plate-reader thermostated to 25° C. Beginning 5 minutes after addition of substrate, absorbance (405 nm) of wells is monitored for 1 hour, and activity is calculated as the mean rate of change in absorbance during this interval.
# Ich-2 (Caspase-4) = target: T2, Ich-2 (Caspase-4) (Homo sapiens, UniProt P49662); assay: Ich-2 (Caspase-4) Colorimetric Dose-Response (IC50) Assay; details: enzyme 64 nM, substrate Ac-Leu-Glu-Val-Asp-pNA
# T2 sequence (P49662 81-270 limits assumed): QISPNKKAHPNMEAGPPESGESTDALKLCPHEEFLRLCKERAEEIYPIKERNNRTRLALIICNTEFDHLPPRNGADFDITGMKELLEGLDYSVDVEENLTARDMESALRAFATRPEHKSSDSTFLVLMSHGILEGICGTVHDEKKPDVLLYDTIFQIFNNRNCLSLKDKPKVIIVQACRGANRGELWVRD
# T2 sequence (P49662 290-377 limits assumed): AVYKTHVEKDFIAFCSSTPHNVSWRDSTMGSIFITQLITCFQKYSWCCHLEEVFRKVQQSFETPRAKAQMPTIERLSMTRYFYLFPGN
# Experimental: as §1, §2
# Ich-2 (Caspase-4) Colorimetric Dose-Response (IC50) Assay
# Inhibition of Ich-2 enzyme is assayed as described above for ICE, except that enzyme is used at 64 nM, and 60 µM of the Ich-2-specific substrate Ac-Leu-Glu-Val-Asp-pNA is used instead of the ICE substrate Ac-Tyr-Val-Ala-Asp-pNA.
Compound,Ki [1],IC50 [2] [µM],IC50 (Ich-2 (Caspase-4)) [µM]
"O=C(O)CC(NC(=O)OCc1ccccc1)C(=O)CNS(=O)(=O)c1cccc2ccccc12 (stereo not shown) [Example 2f, 3-Benzyloxycarbonylamino-5-(naphthalene-1-sulfonylamino)-4-oxo-pentanoic acid]",22 µM,174,1010
"CC(NC(=O)C(NC(=O)OCc1ccccc1)C(C)C)C(=O)NC(CC(=O)O)C(=O)CNS(=O)(=O)CCc1ccccc1 (stereo not shown) [Example 3a, 3-[2-(2-Benzyloxycarbonylamino-3-methyl-butyrylamino)-propionylamino]-4-oxo-5-(2-phenyl-ethanesulfonylamino)-pentanoic acid]",0.007 µM,0.072,18
"O=C(O)CC(NC(=O)OCc1ccccc1)C(=O)CNS(=O)(=O)CC1(F)c2ccccc2-c2ccccc21 (stereo not shown) [Example 2k, 3-Benzyloxycarbonylamino-5-(9-fluoro-9H-fluoren-9-ylmethanesulfonylamino)-4-oxo-pentanoic acid]",22 µM,,
"CC(C)C(NC(=O)C(CCC(=O)O)NC(=O)OCc1ccccc1)C(=O)NC(CC(=O)O)C(=O)CNS(=O)(=O)CCc1ccccc1 (stereo not shown) [Example 3b, 3-[2-(2-Benzyloxycarbonylamino-4-carboxy-butyrylamino)-3-methyl-butyrylamino]-4-oxo-5-(2-phenyl-ethanesulfonylamino)-pentanoic acid]",0.013 µM,0.025,4.2
"O=C(O)CC(NC(=O)OCc1ccccc1)C(=O)CNS(=O)(=O)CCc1cccc2ccccc12 (stereo not shown) [Example 2h, 3-Benzyloxycarbonylamino-5-(2-naphthalen-1-yl-ethanesulfonylamino)-4-oxo-pentanoic acid]",16 µM,55.6,199
"CC(C)C(NC(=O)C(CCC(=O)O)NC(=O)CCc1ccccc1)C(=O)NC(CC(=O)O)C(=O)CNS(=O)(=O)CCc1ccccc1 (stereo not shown) [Example 3c, 3-{2-[4-Carboxy-2-(3-phenyl-propionylamino)-butyrylamino]-3-methyl-butyrylamino}-4-oxo-5-(2-phenyl-ethanesulfonylamino)-pentanoic acid]",0.0051 µM,0.009,3.4
"O=C(O)C[C@H](NC(=O)CN1CCc2ccccc2C1=O)C(=O)CNS(=O)(=O)CCc1ccccc1 [Example 5c, (S)-4-Oxo-3-[2-(1-oxo-3,4-dihydro-1H-isoquinolin-2-yl)-acetylamino]-5-(2-phenyl-ethanesulfonylamino)-pentanoic acid]",45 µM,371,
"O=C(O)C[C@H](NC(=O)CN1CCc2ccccc2C1=O)C(=O)CNS(=O)(=O)c1ccccc1 [Example 5a, 3-(1,2,3,4,-Tetrahydro-1-oxo-isoquinoline-2-yl)acetamino-5-benzenesulfonyl amino-4-oxo-pentanoic acid]",105 µM,586,
"O=C(O)CC(NC(=O)OCc1ccccc1)C(=O)CNS(=O)(=O)Cc1ccccc1 (stereo not shown) [Example 2c, 3-Benzyloxycarbonylamino-4-oxo-5-phenylmethanesulfonyl-amino-pentanoic acid]",18 µM and 14 µM,168,
"O=C(O)CC(NC(=O)CN1CCc2ccccc2C1=O)C(=O)CNS(=O)(=O)Cc1ccccc1 (stereo not shown) [Example 5d, 4-Oxo-3-[2-(1-oxo-3,4-dihydro-1H-isoquinolin-2-yl)-acetylamino]-5-phenylmethanesulfonylamino-pentanoic acid]",27 µM,234,
"O=C(O)CC(NC(=O)OCc1ccccc1)C(=O)CNS(=O)(=O)c1ccccc1 (stereo not shown) [Example 2d, 5-Benzenesulfonylamino-3-benzyloxycarbonylamino-4-oxo-pentanoic acid]",37 µM,291,
"CC(=O)NC(Cc1ccc(O)cc1)C(=O)NC(CCC(=O)O)C(=O)NC(C(=O)NC(CC(=O)O)C(=O)CNS(=O)(=O)CC12CCC(CC1=O)C2(C)C)C(C)C (stereo not shown) [Example 4e, 3-(2-{2-[2-Acetylamino-3-(4-hydroxy-phenyl)-propionylamino]-4-carboxy-butyrylamino}-3-methyl-butyrylamino)-5-(7,7-dimethyl-2-oxo-bicyclo[2.2.1]hept-1-ylmethanesulfonylamino)-4-oxo-pentanoic acid]",0.00011 µM,0.002,0.7
CC(C)C(NC(=O)C(CCC(=O)O)NC(=O)CCc1ccccc1)C(=O)NC(CC(=O)O)C(=O)CNS(=O)(=O)CC12CCC(CC1=O)C2(C)C (stereo not shown) [Example 4d],0.0016 µM,0.003,1.6
"CC(=O)NC(C(=O)NC(CC(=O)O)C(=O)CNS(=O)(=O)C[C@]12CCC(CC1=O)C2(C)C)C(C)C (stereo partly drawn) [Example 4a, 3-(2-Acetylamino-3-methyl-butyrylamino)-5-(7,7-dimethyl-2-oxo-bicyclo [2.2.1]hept-1-(S)-ylmethanesulfonylamino)-4-oxo-pentanoic acid]",0.27 µM,7.6,

# The remaining lines, values ahead:
Ki [1],IC50 [2] [µM],IC50 (Ich-2 (Caspase-4)) [µM],Compound
11 µM,73,,"O=C(O)CC(NC(=O)OCc1ccccc1)C(=O)CNS(=O)(=O)CCc1ccccc1 (stereo not shown) [Example 2a, 3-Benzyloxycarbonylamino-4-oxo-5-(2-phenylethane-sulfonylamino)-pentanoic acid]"
2.8 µM,35.3,,"CC1(C)C2CCC1(CS(=O)(=O)NCC(=O)[C@@H](CC(=O)O)NC(=O)OCc1ccccc1)CC2 [Example 2m, (R)-3-Benzyloxycarbonylamino-5-(7,7-dimethyl-bicyclo[2.2.1]hept-1-ylmethane-sulfonylamino)-4-oxo-pentanoic acid]"
65 µM,194,159,"O=C(O)CC(NC(=O)OCc1ccccc1)C(=O)CNS(=O)(=O)CC1CCc2ccccc21 (stereo not shown) [Example 2j, 3-Benzyloxycarbonylamino-5-(indan-1-ylmethanesulfonylamino)-4-oxo-pentanoic acid]"
1.4 µM,28,935,"CC1(C)C2CCC1(CS(=O)(=O)NCC(=O)C(CC(=O)O)NC(=O)OCc1ccccc1)C(=O)C2 [Example 2l, 3-Benzyloxycarbonylamino-5-(7.7-dimethyl-2-oxo-bicyclo[2.2.1]hept-1-(S)-ylmethanesulfonylamino)-4-oxo-pentanoic acid]"
33 µM,136,314,"O=C(O)CC(NC(=O)OCc1ccccc1)C(=O)CNS(=O)(=O)CCC1CCCCC1 (stereo not shown) [Example 2g, 3-Benzyloxycarbonylamino-5-(2-cyclohexyl-ethanesulfonylamino)-4-oxo-pentanoic acid]"
0.00061 µM,0.002,3.2,"CC(C)C(NC(=O)C(CCC(=O)O)NC(=O)OCc1ccccc1)C(=O)NC(CC(=O)O)C(=O)CNS(=O)(=O)CC12CCC(CC1=O)C2(C)C (stereo not shown) [Example 4f, 3-[2-(2-Benzyloxycarbonylamino-4-carboxy-butyrylamino)-3-methyl-butyrylamino]-5-(7,7-dimethyl-2-oxo-bicyclo[2.2.1]hept-1-ylmethanesulfonylamino)-4-oxo-pentanoic acid]"
0.001 µM,0.015,8.5,"CC(NC(=O)C(NC(=O)OCc1ccccc1)C(C)C)C(=O)NC(CC(=O)O)C(=O)CNS(=O)(=O)CC12CCC(CC1=O)C2(C)C (stereo not shown) [Example 4c, 3-[2-(2-Benzyloxycarbonylamino-3-methyl-butyrylamino)-propionylamino]-5-(7,7-dimethyl-2-oxo-bicyclo[2.2.1]hept-1-ylmethanesulfonylamino)-4-oxo-pentanoic acid]"
735 µM,1830,,"CS(=O)(=O)NCC(=O)C(CC(=O)O)NC(=O)OCc1ccccc1 (stereo not shown) [Example 2e, 3-Benzyloxycarbonylamino-5-methanesulfonylamino-4-oxo-pentanoic acid]"
